From patent US20200017496A1 (priority 2017, published 2020)
Read-outs that look alike come from different tables or passages of the source.

How the values were obtained:
[1] = system: Enterobacter cloacae (ECL) isolates; assay: MIC of compounds alone and combined with antibacterials, broth microdilution (CLSI); format: cell-based; details: for MIC: Enterobacter cloacae
Method in brief: (§1)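 Log-phase bacteria at a final 5·10^5 CFU/mL in cation-adjusted Mueller-Hinton broth were incubated 16-20 h at 35° C in ambient air with compound alone or with an antibacterial. MIC was the lowest concentration preventing visible growth; combination MIC of the antibacterial was read at each compound concentration.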

[2] = system: Escherichia coli (ECO) isolates; assay: as above; format: cell-based
Method in brief: as §1

## C=CC1=C(C(=O)O)N2C(=O)[C@@H](NC(=O)/C(=N\OCC(=O)O)c3csc(N)n3)[C@H]2SC1 [FIX, Cefixime]
[1]; strain ECL UFR13 (TEM-1, SHV-12, CTX-M-9, OXA-48), ATB alone
  MIC: > 128 µg/mL
[1]; strain ECL UFR13 (TEM-1, SHV-12, CTX-M-9, OXA-48), CLA @ 4 μg/ml+ ATB, read-out: MIC
  MIC: 128 µg/mL
[1]; strain ECL UFR14 (TEM-1, SHV-12, CTX-M-15, DHA-1, OXA-1, OXA-48), ATB alone
  MIC: > 128 µg/mL
[1]; strain ECL UFR14 (TEM-1, SHV-12, CTX-M-15, DHA-1, OXA-1, OXA-48), CLA @ 4 μg/ml+ ATB
  MIC: > 128 µg/mL
[1]; strain ECL UFR60 (TEM-1, CTX-M-15, KPC-2), ATB alone
  MIC: > 128 µg/mL
[1]; strain ECL UFR60 (TEM-1, CTX-M-15, KPC-2), CLA @ 4 μg/ml+ ATB, read-out: MIC
  MIC: 128 µg/mL
[1]; strain ECL UFR70 (TEM-1, CTX-M-15, CMY-2, OXA-1, Porin loss), ATB alone
  MIC: > 128 µg/mL
[1]; strain ECL UFR70 (TEM-1, CTX-M-15, CMY-2, OXA-1, Porin loss), CLA @ 4 μg/ml+ ATB
  MIC: > 128 µg/mL
[1]; strain ECL UFR84 (TEM-1, AmpC, OXA-1), ATB alone
  MIC: > 128 µg/mL
[1]; strain ECL UFR84 (TEM-1, AmpC, OXA-1), CLA @ 4 μg/ml+ ATB
  MIC: > 128 µg/mL
[1]; strain ECL UFR85 (TEM-1, CTX-M-15, AmpC), ATB alone
  MIC: > 128 µg/mL
[1]; strain ECL UFR85 (TEM-1, CTX-M-15, AmpC), CLA @ 4 μg/ml+ ATB
  MIC: > 128 µg/mL
[1]; strain ECL UFR194 (OXA-48), ATB alone
  MIC: 4 µg/mL
[1]; strain ECL UFR194 (OXA-48), CLA @ 4 μg/ml+ ATB
  MIC: 8 µg/mL
[1]; strain ECL UFR195 (TEM-1, CTX-M-15, OXA-1, OXA-48), ATB alone
  MIC: > 128 µg/mL
[1]; strain ECL UFR195 (TEM-1, CTX-M-15, OXA-1, OXA-48), CLA @ 4 μg/ml+ ATB
  MIC: > 128 µg/mL
[1]; strain ECL UFR196 (TEM-1, CTX-M-15, OXA-1, OXA-48), ATB alone
  MIC: > 128 µg/mL
[1]; strain ECL UFR196 (TEM-1, CTX-M-15, OXA-1, OXA-48), CLA @ 4 μg/ml+ ATB
  MIC: > 128 µg/mL
[1]; strain ECL UFR200 (TEM-1, SHV-12, KPC-2), ATB alone
  MIC: > 128 µg/mL
[1]; strain ECL UFR200 (TEM-1, SHV-12, KPC-2), CLA @ 4 μg/ml+ ATB
  MIC: 16 µg/mL
[1]; strain ECL UFR195, antibacterial combined with AF1 @ 4 μg/mL
  MIC ATB in combination: 4 µg/mL
[1]; strain ECL UFR195, antibacterial combined with AF1 @ 8 μg/mL
  MIC ATB in combination: <=0.25 μg/mL
[1]; strain ECL UFR196, antibacterial combined with AF1 @ 4 μg/mL
  MIC ATB in combination: 16 µg/mL
[1]; strain ECL UFR196, antibacterial combined with AF1 @ 8 μg/mL
  MIC ATB in combination: 4 µg/mL
[1]; strain ECL UFR197, antibacterial combined with AF1 @ 4 μg/mL
  MIC ATB in combination: 16 µg/mL
[1]; strain ECL UFR197, antibacterial combined with AF1 @ 8 μg/mL
  MIC ATB in combination: 1 µg/mL
[1]; strain ECL UFR198, antibacterial combined with AF1 @ 4 μg/mL
  MIC ATB in combination: 64 µg/mL
[1]; strain ECL UFR198, antibacterial combined with AF1 @ 8 μg/mL
  MIC ATB in combination: 64 µg/mL
[2]
  MIC ATB in combination: >128 µg/mL
[2]; ECO 4133, AF1 @ 4 μg/mL
  MIC ATB in combination: <=0.25 μg/mL
[2]; ECO 4133, AF1 @ 8 μg/mL
  MIC ATB in combination: <=0.25 μg/mL
[2]; ECO 5302, AF1 @ 4 μg/mL
  MIC ATB in combination: <=0.25 μg/mL
[2]; ECO 5302, AF1 @ 8 μg/mL
  MIC ATB in combination: <=0.25 μg/mL
[2]; ECO 131119, AF1 @ 4 μg/mL
  MIC ATB in combination: <=0.25 μg/mL
[2]; ECO 131119, AF1 @ 8 μg/mL
  MIC ATB in combination: <=0.25 μg/mL
[2]; ECO 180070, AF1 @ 4 μg/mL
  MIC ATB in combination: <=0.25 μg/mL
[2]; ECO 180070, AF1 @ 8 μg/mL
  MIC ATB in combination: <=0.25 μg/mL
[2]; ECO 190314, AF1 @ 4 μg/mL
  MIC ATB in combination: <=0.25 μg/mL
[2]; ECO 190314, AF1 @ 8 μg/mL
  MIC ATB in combination: <=0.25 μg/mL
[2]; ECO 190317, AF1 @ 4 μg/mL
  MIC ATB in combination: <=0.25 μg/mL
[2]; ECO 190317, AF1 @ 8 μg/mL
  MIC ATB in combination: <=0.25 μg/mL
[2]; ECO 190457, AF1 @ 8 μg/mL
  MIC ATB in combination: 0.031 µg/mL
[2]; ECO 190549, AF1 @ 4 μg/mL
  MIC ATB in combination: <=0.25 μg/mL
[2]; ECO 190549, AF1 @ 8 μg/mL
  MIC ATB in combination: <=0.25 μg/mL
[2]; ECO 200159, AF1 @ 4 μg/mL
  MIC ATB in combination: <=0.25 μg/mL
[2]; ECO 200159, AF1 @ 8 μg/mL
  MIC ATB in combination: <=0.25 μg/mL
[2]; ECO 200259, AF1 @ 4 μg/mL
  MIC ATB in combination: <=0.25 μg/mL
[2]; ECO 200259, AF1 @ 8 μg/mL
  MIC ATB in combination: <=0.25 μg/mL
[2]; ECO 200344, AF1 @ 4 μg/mL
  MIC ATB in combination: <=0.25 μg/mL
[2]; ECO 200344, AF1 @ 8 μg/mL
  MIC ATB in combination: <=0.25 μg/mL
[2]; ECO 260096, AF1 @ 4 μg/mL
  MIC ATB in combination: <=0.25 μg/mL
[2]; ECO 260096, AF1 @ 8 μg/mL
  MIC ATB in combination: <=0.25 μg/mL
[2]; ECO 260304, AF1 @ 4 μg/mL
  MIC ATB in combination: <=0.25 μg/mL
[2]; ECO 260304, AF1 @ 8 μg/mL
  MIC ATB in combination: <=0.25 μg/mL
[2]; ECO 260508, AF1 @ 4 μg/mL
  MIC ATB in combination: <=0.25 μg/mL
[2]; ECO 260508, AF1 @ 8 μg/mL
  MIC ATB in combination: <=0.25 μg/mL
[2]; ECO RGN238, AF1 @ 4 μg/mL
  MIC ATB in combination: <=0.25 μg/mL
[2]; ECO RGN238, AF1 @ 8 μg/mL
  MIC ATB in combination: <=0.25 μg/mL
[2]; ECO UFR15, AF1 @ 4 μg/mL
  MIC ATB in combination: <=0.25 μg/mL
[2]; ECO UFR15, AF1 @ 8 μg/mL
  MIC ATB in combination: <=0.25 μg/mL
[2]; ECO UFR16, AF1 @ 4 μg/mL
  MIC ATB in combination: <=0.25 μg/mL
[2]; ECO UFR16, AF1 @ 8 μg/mL
  MIC ATB in combination: <=0.25 μg/mL
[2]; ECO UFR17, AF1 @ 8 μg/mL
  MIC ATB in combination: 16 µg/mL
[2]; ECO UFR18, AF1 @ 4 μg/mL
  MIC ATB in combination: 16 µg/mL
[2]; ECO UFR18, AF1 @ 8 μg/mL
  MIC ATB in combination: 0.5 µg/mL
[2]; ECO UFR19, AF1 @ 4 μg/mL
  MIC ATB in combination: 16 µg/mL
[2]; ECO UFR19, AF1 @ 8 μg/mL
  MIC ATB in combination: <0.25 µg/mL
[2]; ECO UFR20, AF1 @ 4 μg/mL
  MIC ATB in combination: 1 µg/mL
[2]; ECO UFR20, AF1 @ 8 μg/mL
  MIC ATB in combination: 1 µg/mL
[2]; ECO UFR61O, AF1 @ 4 μg/mL
  MIC ATB in combination: 0.25 µg/mL
[2]; ECO UFR62, AF1 @ 4 μg/mL
  MIC ATB in combination: <=0.25 μg/mL
[2]; ECO UFR62, AF1 @ 8 μg/mL
  MIC ATB in combination: <=0.25 μg/mL
[2]; ECO UFR74, AF1 @ 4 μg/mL
  MIC ATB in combination: 32 µg/mL
[2]; ECO UFR74, AF1 @ 8 μg/mL
  MIC ATB in combination: 1 µg/mL
[2]; ECO UFR86, AF1 @ 4 μg/mL
  MIC ATB in combination: 0.5 µg/mL
[2]; ECO UFR86, AF1 @ 8 μg/mL
  MIC ATB in combination: <=0.25 μg/mL
[2]; ECO UFR174, AF1 @ 4 μg/mL
  MIC ATB in combination: <=0.25 μg/mL
[2]; ECO UFR174, AF1 @ 8 μg/mL
  MIC ATB in combination: <0.25 µg/mL
[2]; ECO UFR175, AF1 @ 4 μg/mL
  MIC ATB in combination: <=0.25 μg/mL
[2]; ECO UFR175, AF1 @ 8 μg/mL
  MIC ATB in combination: <=0.25 μg/mL
